Patent publication US20200390899A1, “AMINOBENZAZEPINE COMPOUNDS, IMMUNOCONJUGATES, AND USES THEREOF” (BOLT BIOTHERAPEUTICS, INC., priority 2019, published 2020)
Like-named read-outs stand apart in the source and are kept apart here.

Legend:
[1] = target: T1, human TLR7 (Homo sapiens, UniProt Q9NYK1); assay: HEK293 NFKB reporter assay, human TLR7; assay type: cell-based; conditions: HEK293 reporter cells expressing human TLR7, read-out: HEK293 hTLR7 EC50
T1 construct: host or cells: HEK293 reporter cells
T1 sequence (Q9NYK1 27-1049): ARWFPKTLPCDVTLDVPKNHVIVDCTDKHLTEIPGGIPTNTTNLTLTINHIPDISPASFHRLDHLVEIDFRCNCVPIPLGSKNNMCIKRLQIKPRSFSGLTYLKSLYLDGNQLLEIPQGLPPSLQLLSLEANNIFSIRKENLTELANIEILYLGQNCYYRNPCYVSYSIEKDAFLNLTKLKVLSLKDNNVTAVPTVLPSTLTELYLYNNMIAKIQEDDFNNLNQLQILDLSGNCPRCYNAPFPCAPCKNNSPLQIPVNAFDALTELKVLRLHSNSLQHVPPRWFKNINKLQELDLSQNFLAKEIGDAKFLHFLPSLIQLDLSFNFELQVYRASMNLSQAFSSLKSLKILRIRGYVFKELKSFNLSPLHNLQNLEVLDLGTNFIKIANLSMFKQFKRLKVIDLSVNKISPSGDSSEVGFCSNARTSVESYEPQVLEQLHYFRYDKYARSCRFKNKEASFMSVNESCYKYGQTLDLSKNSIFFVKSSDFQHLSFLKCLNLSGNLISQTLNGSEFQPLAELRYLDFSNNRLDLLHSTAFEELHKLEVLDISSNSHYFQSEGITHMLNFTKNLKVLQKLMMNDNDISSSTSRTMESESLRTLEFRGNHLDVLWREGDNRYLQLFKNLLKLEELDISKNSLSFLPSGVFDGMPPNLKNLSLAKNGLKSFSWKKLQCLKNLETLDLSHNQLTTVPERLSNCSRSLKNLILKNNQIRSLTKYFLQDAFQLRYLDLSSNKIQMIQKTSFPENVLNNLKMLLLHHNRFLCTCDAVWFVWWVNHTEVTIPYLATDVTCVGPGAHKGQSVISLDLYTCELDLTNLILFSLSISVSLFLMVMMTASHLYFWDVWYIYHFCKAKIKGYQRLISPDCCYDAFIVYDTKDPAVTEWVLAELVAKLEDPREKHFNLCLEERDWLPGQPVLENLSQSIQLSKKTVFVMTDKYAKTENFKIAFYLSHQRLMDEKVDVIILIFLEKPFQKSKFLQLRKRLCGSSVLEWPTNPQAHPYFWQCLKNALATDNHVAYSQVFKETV
Protocol: (§1) Each compound was synthesized and purified by the methods in the Examples provided herein, characterized by mass spectrometry, and shown to have the mass indicated. Activity against HEK293 NFKB reporter cells expressing human TLR7 or human TLR8 was measured according to Example 68.
(§2) HEK293 reporter cells expressing human TLR7 or human TLR8 were purchased from Invivogen and vendor protocols were followed for cellular propagation and experimentation. Briefly, cells were grown to 80-85% confluence at 5% CO2 in DMEM supplemented with 10% FBS, Zeocin, and Blasticidin. Cells were then seeded in 96-well flat plates at 4×10^4cells/well with substrate containing HEK detection medium and immunostimulatory molecules. Activity was measured using a plate reader at 620-655 nm wavelength.

[2] = target: T2, human TLR8 (Homo sapiens, UniProt Q9NR97); assay: HEK293 NFKB reporter assay, human TLR8; assay type: cell-based; conditions: HEK293 reporter cells expressing human TLR8, read-out: HEK293 hTLR8 EC50
T2 construct: host or cells: HEK293 reporter cells
T2 sequence (Q9NR97 27-1041): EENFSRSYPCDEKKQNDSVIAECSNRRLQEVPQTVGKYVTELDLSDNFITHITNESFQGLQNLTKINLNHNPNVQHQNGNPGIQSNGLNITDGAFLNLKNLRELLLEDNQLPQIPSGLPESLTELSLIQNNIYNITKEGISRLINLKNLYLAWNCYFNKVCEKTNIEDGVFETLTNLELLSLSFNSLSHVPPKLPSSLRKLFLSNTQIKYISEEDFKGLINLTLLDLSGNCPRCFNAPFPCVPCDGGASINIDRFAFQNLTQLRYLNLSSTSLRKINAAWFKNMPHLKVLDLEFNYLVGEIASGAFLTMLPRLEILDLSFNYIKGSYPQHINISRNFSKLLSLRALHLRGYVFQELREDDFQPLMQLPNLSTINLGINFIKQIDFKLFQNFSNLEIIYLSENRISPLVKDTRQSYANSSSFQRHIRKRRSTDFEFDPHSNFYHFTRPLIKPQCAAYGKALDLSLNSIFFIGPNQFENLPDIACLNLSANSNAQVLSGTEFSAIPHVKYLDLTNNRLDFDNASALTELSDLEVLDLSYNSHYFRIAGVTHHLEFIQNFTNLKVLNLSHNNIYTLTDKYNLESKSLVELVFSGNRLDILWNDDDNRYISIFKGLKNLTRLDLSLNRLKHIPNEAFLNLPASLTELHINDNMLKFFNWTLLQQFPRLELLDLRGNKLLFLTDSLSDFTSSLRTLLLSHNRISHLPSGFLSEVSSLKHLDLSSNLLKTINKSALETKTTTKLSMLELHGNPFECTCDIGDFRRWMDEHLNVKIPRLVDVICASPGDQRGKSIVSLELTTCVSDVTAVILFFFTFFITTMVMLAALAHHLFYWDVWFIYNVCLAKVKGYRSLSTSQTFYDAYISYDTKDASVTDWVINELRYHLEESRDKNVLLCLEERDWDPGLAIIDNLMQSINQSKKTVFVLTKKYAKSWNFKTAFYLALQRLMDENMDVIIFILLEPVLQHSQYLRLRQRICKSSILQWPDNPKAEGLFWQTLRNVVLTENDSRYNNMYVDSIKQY
Protocol: as §1, §2

| Structure (SMILES) | EC50 ([1]; Table 1b) | EC50 ([2]; Table 1b) | EC50 ([1]; Table 1a) | EC50 ([2]; Table 1a) | further results |
| --- | --- | --- | --- | --- | --- |
| CCCN(CCCNC(=O)OC(C)(C)C)C(=O)C1=Cc2ccc(-c3cccc(S(=O)(=O)N4CC(CO)C4)c3)cc2N=C(N)C1 [Bz-1, tert-butyl N-[3-[[2-amino-8-[3-[3-(hydroxymethyl)azetidin-1-yl]sulfonylphenyl]-3H-1-benzazepine-4-carbonyl]-propyl-amino]propyl]carbamate] | – | – | 571 nM | 106 nM | – |
| CCCN(CCC)C(=O)C1=Cc2ccc(-c3cc(C(F)(F)F)cc(S(=O)(=O)N4CC(CN(C)C)C4)c3)cc2N=C(N)C1 [Bz-39] | – | – | – | – | EC50 ([1]; Table 1c): 42 nM; EC50 ([2]; Table 1c): 728 nM |
| CCCN(CCCNC(=O)NC(C)(C)C)C(=O)C1=Cc2ccc(-c3cccc(S(=O)(=O)N4CC(CO)C4)c3)cc2N=C(N)C1 [Bz-11, 2-amino-N-[3-(tert-butylcarbamoylamino)propyl]-8-[3-[3-(hydroxymethyl)azetidin-1-yl]sulfonylphenyl]-N-propyl-3H-1-benzazepine-4-carboxamide] | – | – | 7840 nM | 1390 nM | – |
| CCCN(CCCN(C)C(=O)OC(C)(C)C)C(=O)C1=Cc2ccc(-c3ccc(C(=O)N4CCCC4)cc3)cc2N=C(N)C1 [Bz-8] | – | – | 3370 nM | > 9000 nM | – |
| CCCN(CCC)C(=O)C1=Cc2ccc(-c3cccc(S(=O)(=O)N4CC(CN)C4)c3)cc2N=C(N)C1 [Bz-15, 2-amino-8-[3-[3-(aminomethyl)azetidin-1-yl]sulfonylphenyl]-N,N-dipropyl-3H-1-benzazepine-4-carboxamide] | – | – | > 9000 nM | 103 nM | – |
| CCCN(CCC)C(=O)C1=Cc2c(CCCCNC(=O)OC(C)(C)C)cc(-c3cccc(S(=O)(=O)N4CC(CO)C4)c3)cc2N=C(N)C1 [Bz-5, tert-butyl (4-(2-amino-4-(dipropylcarbamoyl)-8-(3-((3-(hydroxymethyl)azetidin-1-yl)sulfonyl)phenyl)-3H-benzo[b]azepin-6-yl)butyl)carbamate] | – | – | 155 nM | 256 nM | – |
| CCCN(OCC)C(=O)C1=Cc2ccc(-c3cccc(S(=O)(=O)N4CC(CN(C)C)C4)c3)cc2N=C(N)C1 [Bz-63] | – | – | – | – | EC50 ([1]; Table 1c): 1270 nM; EC50 ([2]; Table 1c): 8 nM |

Second part, led by results:

| EC50 ([1]; Table 1b) | EC50 ([2]; Table 1b) | EC50 ([1]; Table 1a) | EC50 ([2]; Table 1a) | Structure (SMILES) | further results |
| --- | --- | --- | --- | --- | --- |
| > 9000 nM | > 9000 nM | – | – | CCCN(CCCCN)C(=O)C1=Cc2ccc(-c3cccc(S(=O)(=O)N4CC(CO)C4)c3)cc2N=C(N)C1 [Bz-24, 2-amino-N-(4-aminobutyl)-8-[3-[3-(hydroxymethyl)azetidin-1-yl]sulfonylphenyl]-N-propyl-3H-1-benzazepine-4-carboxamide] | – |
| > 9000 nM | > 9000 nM | – | – | CCCN(C/C=C/CN)C(=O)C1=Cc2ccc(-c3cccc(S(=O)(=O)N4CC(CO)C4)c3)cc2N=C(N)C1 [Bz-22, 2-amino-N-[(E)-4-aminobut-2-enyl]-8-[3-[3-(hydroxymethyl)azetidin-1-yl]sulfonylphenyl]-N-propyl-3H-1-benzazepine-4-carboxamide] | – |
| > 9000 nM | 318 nM | – | – | CCCN(CC#CCNC(=O)OC(C)(C)C)C(=O)C1=Cc2ccc(-c3cccc(S(=O)(=O)N4CC(CO)C4)c3)cc2N=C(N)C1 [Bz-26, tert-butyl N-[4-[[2-amino-8-[3-[3-(hydroxymethyl)azetidin-1-yl]sulfonylphenyl]-3H-1-benzazepine-4-carbonyl]-propyl-amino]but-2-ynyl]carbamate] | – |
| > 9000 nM | > 9000 nM | – | – | CCCN(CCCOCCOCCN)C(=O)C1=Cc2ccc(-c3cccc(S(=O)(=O)N4CC(CO)C4)c3)cc2N=C(N)C1 [Bz-21, 2-amino-N-(3-(2-(2-aminoethoxy)ethoxy)propyl)-8-(3-((3-(hydroxymethyl)azetidin-1-yl)sulfonyl)phenyl)-N-propyl-3H-benzo[b]azepine-4-carboxamide] | – |
| 1430 nM | 1920 nM | – | – | CCCN(CCCNC(=O)c1ccc(OCC)cc1)C(=O)C1=Cc2ccc(-c3cccc(S(=O)(=O)N4CC(CO)C4)c3)cc2N=C(N)C1 [Bz-33, 2-amino-N-(3-(4-ethoxybenzamido)propyl)-8-(3-((3-(hydroxymethyl)azetidin-1-yl)sulfonyl)phenyl)-N-propyl-3H-benzo[b]azepine-4-carboxamide] | – |
